From PMC11183791, “Vancomycin population pharmacokinetics and dosing proposal for the initial treatment in obese adult patients” (Frontiers in Pharmacology, 2024)
Values after ≈ are worked out from the molar mass of the structure shown.

Experiments:
[1] = system: isolated bacterial strain (Staphylococcus spp., Enterococcus spp., Klebsiella pneumoniae, Streptococcus agalactiae); settings: isolated bacterial strains of the study patients
[2] = Vancomycin trough serum levels after loading dose with and without the guidance of clinical pharmacists (TDM, KIMS immunoturbidimetry); format: in vivo, human
Experimental: The lower limits of detection and quantitation were 1.5 and 4.0 mg/L, respectively, and the measuring range was from 4.0 to 80.0 mg/L. Only levels measured during initial vancomycin therapy (first 3 days of treatment) were included in the PK analysis. If available, the MIC value of vancomycin for the isolated bacterial strain was also recorded.
Vancomycin t1/2 was calculated from Vd and clearance (CL) values using the following formula: t1/2 = 0.693 × Vd/CL. Descriptive parameter medians and interquartile range (IQR) were calculated using MS Excel 2013 (Microsoft Corporation, Redmond, United States). The Mann–Whitney U-test was used to compare vancomycin loading doses (LDs)with and without the guidance of clinical pharmacists and compare trough levels reached after loading dose administration. The linear regression model was used to evaluate the relationships between vancomycin PK parameters (Vd and CL) and continuous variables (BW, LBM, BSA, BMI, creatinine, and cystatin C-based eGFR). GraphPad Prism software version 8.2.1 (GraphPad Inc., La Jolla, CA, USA) was used for all comparisons, and p-levels <0.05 were considered statistically significant.

[3] = cited from earlier work
[4] = bootstrap analysis, 250 replicates
[5] = obese adults (BMI ≥30 kg/m^2), n = 138, iv infusion, first 3 days of treatment, one-compartment model

CN[C@H](CC(C)C)C(=O)N[C@H]1C(=O)N[C@@H](CC(N)=O)C(=O)N[C@H]2C(=O)N[C@H]3C(=O)N[C@H](C(=O)N[C@H](C(=O)O)c4cc(O)cc(O)c4-c4cc3ccc4O)[C@H](O)c3ccc(c(Cl)c3)Oc3cc2cc(c3O[C@@H]2O[C@H](CO)[C@@H](O)[C@H](O)[C@H]2O[C@H]2C[C@](C)(N)[C@H](O)[C@H](C)O2)Oc2ccc(cc2Cl)[C@H]1O [vancomycin, Vancomycin]
MIC, median (min–max) [1]: 1 (≤0.5–2) mg/L
MIC, modus [1]: 1 µg/mL (≈ 0.69 µM)
median trough level after LD relative to the recommended therapeutic range (15–20 mg/L) ([2]; LD with the guidance of clinical pharmacists): in
median trough level after LD relative to the recommended therapeutic range (15–20 mg/L) ([2]; LD without the guidance of clinical pharmacists): out of the recommended therapeutic range
CL_pop, bootstrap median (95% CI) [4]: 1.27 (1.24–1.31) L/h
Vd_pop, bootstrap median (95% CI) [4]: 79.3 (77.8–80.9) L
β_CL_LBM, bootstrap median (95% CI) [4]: 0.011 (0.0108–0.0113) kg
β_CL_eGFR, bootstrap median (95% CI) [4]: 0.61 (0.60–0.63) mL/s/1.73 m^2
CL, median (interquartile range) of individual estimates (conditional modes) [5]: 6.65 (4.95–8.42) L/h
Vd, median (interquartile range) of individual estimates (conditional modes) [5]: 74.0 (70.5–75.4) L
elimination half-life t1/2, median (interquartile range) of individual estimates (obese adults, n = 138, t1/2 = 0.693 × Vd/CL): 7.7 (6.0–10.0) h
t1/2 corresponding to estimated CL and Vd of 75 L (patient with LBM of 68 kg and eGFR of 1.51 mL/s/1.73 m^2): 7.4 h
CL estimated from the final covariate equation (patient with LBM of 68 kg and eGFR of 1.51 mL/s/1.73 m^2 (median values of the study population)): 7 L/h
Vd_pop, final model estimate (typical value of parameter, final covariate population PK model, obese adults): 75.0 L
CL_pop, final model estimate (typical value, CL=CL_pop×e^(β_CL_eGFR×eGFR)×e^(β_CL_LBM×LBM)): 1.32 L/h
elimination half-life (t1/2) ([3]; can be prolonged in renal insufficiency, ref Rybak, 2006): 6 to 12 h
distribution half-life ([3]; ref Matzke et al., 1986): approximately 7 min
distribution phase duration ([3]; ref Matzke et al., 1986): approximately 0.5 h
absorption after oral administration ([3]; ref Rybak et al., 2009): not absorbed efficiently
portion of dose excreted unchanged via glomerular filtration ([3]; ref Rybak, 2006): majority
contribution of the distribution phase to total vancomycin exposure ([3]; ref Shingde et al., 2019): < 10%
